Laboratory results as given in ChEMBL document CHEMBL5244272 (Eur J Med Chem, 2021).
pIC50: −log10 of the molar value.

Tests used:
[1] = tested on: Plasmodium falciparum; assay: Antimalarial activity against ART-sensitive Plasmodium falciparum NF54; assay type: functional, organism-based
[2] = tested on: Plasmodium falciparum; assay: Antimalarial activity against ART-sensitive Plasmodium falciparum W2; assay type: functional, organism-based
[3] = tested on: Plasmodium berghei; assay: Antimalarial activity against Plasmodium berghei infected in mouse; assay type: functional; conditions: Plasmodium berghei
[4] = tested on: Plasmodium falciparum; assay: Antimalarial activity against Plasmodium falciparum SGE2; assay type: functional, organism-based
[5] = tested on: Plasmodium falciparum; assay: Antimalarial activity against Plasmodium falciparum IPC5202; assay type: functional, organism-based
[6] = tested on: Plasmodium falciparum; assay: Antimalarial activity against Plasmodium falciparum HB3; assay type: functional, organism-based
[7] = tested on: Plasmodium falciparum; assay: Antimalarial activity against Plasmodium falciparum Dd2; assay type: functional, organism-based
[8] = tested on: Plasmodium falciparum; assay: Antimalarial activity against Plasmodium falciparum 3D7; assay type: functional, organism-based
[9] = tested on: Plasmodium falciparum; assay: Antimalarial activity against ART-resistant Plasmodium falciparum NF54 harboring […] mutant; assay type: functional, organism-based
[10] = tested on: Plasmodium falciparum; assay: Antimalarial activity against Plasmodium falciparum IV-V gametocytes; assay type: functional, organism-based
[11] = tested on: Plasmodium falciparum; assay: Antimalarial activity against Plasmodium falciparum IPC4912; assay type: functional, organism-based
[12] = tested on: Plasmodium falciparum; assay: Antimalarial activity against ART-resistant Plasmodium falciparum Dd2 harboring R539T mutant; assay type: functional, organism-based
[13] = tested on: Plasmodium falciparum; assay: Antimalarial activity against Plasmodium falciparum NF54; assay type: functional, organism-based
[14] = tested on: Plasmodium falciparum; assay: Antimalarial activity against Plasmodium falciparum K1; assay type: functional, organism-based
[15] = tested on: Plasmodium falciparum; assay: Antimalarial activity against Plasmodium falciparum W2; assay type: functional, organism-based
[16] = Selectivity index, ratio of IC50 for HEK293 cells to IC50 for Plasmodium falciparum NF54; assay type: toxicity; conditions: human, read-out: Ratio IC50
[17] = tested on: Plasmodium falciparum; assay: Antimalarial activity against Plasmodium falciparum; assay type: functional, organism-based
[18] = Cytotoxicity against HEK293 cells; assay type: toxicity, cell-based; conditions: human
[19] = tested on: Plasmodium falciparum; assay: Potency index, ratio of chloroquine IC50 to test compound IC50 for Plasmodium falciparum INDO; assay type: functional
[20] = tested on: Plasmodium falciparum; assay: Antimalarial activity against Plasmodium falciparum INDO; assay type: functional, organism-based
[21] = tested on: Plasmodium falciparum; assay: Antimalarial activity against chloroquine sensitive Plasmodium falciparum FCR-3; assay type: functional, organism-based
[22] = tested on: Plasmodium berghei; assay: Antimalarial activity against Plasmodium berghei N strain infected in mouse at 15 mg/kg, ip administered once daily for 4 days; assay type: functional; conditions: time 4 day
[23] = Cytotoxicity against human MRC5 cells; assay type: toxicity, cell-based
[24] = tested on: Plasmodium berghei; assay: Antimalarial activity against Plasmodium berghei infected in mouse at less than 10 mg/kg, po; assay type: functional
[25] = tested on: Plasmodium vinckei; assay: Antimalarial activity against Plasmodium vinckei infected in po dosed mouse; assay type: functional
[26] = tested on: Plasmodium vinckei; assay: Antimalarial activity against Plasmodium vinckei infected in ip dosed mouse; assay type: functional
[27] = tested on: Plasmodium berghei; assay: Antimalarial activity against Plasmodium berghei infected in mouse assessed reduction in parasitemia measured after 4 days; assay type: functional; parameters: scale not given: the % may be the effect or the level left; conditions: time 4 day
[28] = tested on: Plasmodium berghei; assay: Antimalarial activity against Plasmodium berghei infected in mouse assessed increase in survival time; assay type: functional
[29] = tested on: Plasmodium berghei; assay: Antimalarial activity against Plasmodium berghei ANKA infected in mouse at 30 mg/kg, po; assay type: functional
[30] = tested on: Plasmodium falciparum; assay: Antimalarial activity against chloroquine resistant Plasmodium falciparum FcB1/Colombia; assay type: functional, organism-based
[31] = Selectivity index, ratio of IC50 for human AB943 to IC50 for chloroquine resistant Plasmodium falciparum FcB1/Colombia
[32] = tested on: Plasmodium vinckei; assay: Antimalarial activity against Plasmodium vinckei infected in mouse assessed as reduction in parasitaemia at 25 mg/kg, po or 7.5 mg/kg, ip measured on day 5; assay type: functional; parameters: scale not given: the % may be the effect or the level left
[33] = tested on: Plasmodium vinckei; assay: Antimalarial activity against Plasmodium vinckei infected in mouse assessed as reduction in parasitaemia at 50 mg/kg, po or […], ip measured on day 5; assay type: functional; parameters: scale not given: the % may be the effect or the level left
[34] = tested on: Plasmodium yoelii; assay: Antimalarial activity against Plasmodium yoelii BY265 infected in mouse assessed reduction in parasitemia at 4.4 to […], iv administered for 4 consecutive days; assay type: functional; parameters: scale not given: the % may be the effect or the level left
[35] = tested on: Plasmodium berghei; assay: Antimalarial activity against Plasmodium berghei infected in mouse assessed cured animal rate measured after 25 days; assay type: functional; conditions: time 25 day

C[C@H]1[C@@H](O)O[C@@H]2O[C@@]3(C)CC[C@H]4[C@H](C)CC[C@@H]1[C@@]24OO3 [ARTENIMOL]
pIC50 [1]: 8.82
pIC50 [2]: 9.00
ED50 [3]: 1.15 mg/kg
pIC50 [4]: 8.05
pIC50 [5]: 8.21
pIC50 [6]: 8.30
pIC50 [7]: 8.38
pIC50 [8]: 8.33
pIC50 [9]: 8.96
pIC50 [10]: 6.36
pIC50 [11]: 8.43
pIC50 [12]: 8.85

CC(C)CCC[C@H](C)C1CC[C@H]2[C@@H]3CC=C4C[C@@H](OC(=O)CCN5CCN([C@H]6O[C@@H]7O[C@]8(C)CC[C@H]9[C@H](C)CC[C@@H]([C@H]6C)[C@@]79OO8)CC5)CC[C@]4(C)[C@H]3CC[C@]12C (some centres undefined)
pIC50 [13]: 7.51
pIC50 [14]: 7.54
pIC50 [15]: 7.62
selectivity ratio [16]: 3900

COC1(c2ccc(S(C)(=O)=O)cc2)CCC2(CCCCC2)OO1 (centres undefined)
pIC50 [17]: 7.51

C=C(c1ccc(-c2cccc3ccccc23)cc1)C1COC2(CCCC2)OO1 (centres undefined)
CC50 [18]: 3300 nM
Ratio IC50 [19]: >9
pIC50 [20]: 7.23

C[C@H]1C(=O)O[C@@H]2O[C@]3(C)CC[C@H]4N(Cc5ccc(OCCN6CCOCC6)cc5)CC[C@@H]1[C@@]24OO3
pIC50 [14]: 7.48
pIC50 [21]: 7.74
Activity [22]: 98.6%
pIC50 [23]: 4.45

C[C@@H]1CC[C@H]2C(CN3CCN(CCO)CC3)=C(C(F)(F)F)O[C@@H]3O[C@]4(C)CC[C@@H]1[C@]32OO4
Activity [24]: 100%

CC(CNCCO[C@H]1O[C@@H]2O[C@]3(C)CC[C@H]4[C@H](C)CC[C@@H]([C@H]1C)[C@@]24OO3)Nc1ccnc2cc(Cl)ccc12 (some centres undefined)
ED50 [25]: 12 mg/kg
ED50 [26]: 1.1 mg/kg

Oc1ccc(C2CCC3(CC2)OOC2(OO3)C3CC4CC(C3)CC2C4)cc1CN1CCCC1 (centres undefined)
pIC50 [13]: 8.32
Activity [27]: >99.7%
Time [28]: 25 days
pIC50 [14]: 8.32

O=C(CC1CCC2(CC1)OOC1(OO2)C2CC3CC(C2)CC1C3)NC1CC1 (centres undefined)
Activity [29]: 100%

CCOP(=O)(CCCN(O)C(=O)CCC(=O)N(CCCCNC(=O)CC[C@@H]1O[C@@H]2O[C@@]3(C)CC[C@@H]4[C@@H](C)CC[C@@H]([C@@H]1C)[C@]24OO3)CCCNC(=O)CCO[C@H]1O[C@@H]2O[C@]3(C)CC[C@H]4[C@H](C)CC[C@@H]([C@H]1C)[C@@]24OO3)OCC
pIC50 [30]: 9.44
Ratio IC50 [31]: 94

CCCCNC(=O)CCC(C)[C@H]1CCC2C3C(C[C@H](OC(C)=O)[C@@]21C)[C@@]1(C)CCC2(C[C@H]1C[C@H]3OC(C)=O)OOCOO2 (some centres undefined)
pIC50 [10]: 5.94

C[C@H]1[C@@H](OCCN(CCCNc2ccnc3cc(Cl)ccc23)CCO[C@H]2O[C@@H]3O[C@]4(C)CC[C@H]5[C@H](C)CC[C@@H]([C@H]2C)[C@@]35OO4)O[C@@H]2O[C@]3(C)CC[C@H]4[C@H](C)CC[C@@H]1[C@@]24OO3
Activity [32]: <1%
Activity [33]: <1%

C1C2CC3CC1CC(C2)[C@]31OO[C@@]2(CCC(Nc3nn[nH]n3)CC2)O1 (some centres undefined)
pIC50 [5]: 8.21
pIC50 [7]: 8.60
pIC50 [8]: 8.55
pIC50 [11]: 8.17

CCCCCCCCCCCCCC[N+](C)(C)CCOC(=O)c1ccc(COC2O[C@@H]3O[C@]4(C)CC[C@H]5[C@H](C)CC[C@@H]([C@H]2C)[C@@]35OO4)cc1.[Br-] (some centres undefined)
Activity [34]: >50%

CCN(CC)Cc1cc(C2CCC3(CC2)OOC2(OO3)C3CC4CC(C3)CC2C4)ccc1O (centres undefined)
Activity [27]: >99.7%
Activity [35]: 66%
Time [28]: 27 days

Cn1nnc(NCC2CC[C@]3(CC2)OO[C@]2(O3)C3CC4CC(C3)CC2C4)n1 (some centres undefined)
pIC50 [5]: 8.47
pIC50 [7]: 8.68
pIC50 [8]: 8.54
pIC50 [11]: 8.32
